Columns and labels:
[1] = target: Mcl-1 (Homo sapiens (Human), UniProt Q07820); experiment: Terbium labeled Mcl-1 HTRF binding assay, displacement of Cy5-labeled BIM BH3 peptide; details: Ki=IC50/(1+[L]/Kd), [L]=8 nM, Kd=10 nM; 25 pM Tb-Mcl-1, 8 nM Cy5 Bim peptide, 60 min; read-out: Tb-MCL1 Ki
Method: Terbium labeled Myeloid Cell Leukemia 1(Mcl-1) homogeneous time-resolved fluorescence (HTRF) binding assay utilizing the BIM BH3 peptide (H2N—(C/Cy5Mal) WIAQELRRIGDEFN-OH) as the binding partner for Mcl-1.
This assay evaluated inhibition of the BH3 domain: Mcl-1 interaction by measuring the displacement of Cy5-labeled BIM BH3 peptide (H2N—(C/Cy5Mal) WIAQELRRIGDEFN-OH) in the HTRF assay format.
The following assay and stock buffers were prepared for use in the assay: (a) Stock buffer: 10 mM Tris-HCl, pH=7.5+150 mM NaCl, filtered, sterilized, and stored at 4° C.; and (b) 1× assay buffer, where the following ingredients were added fresh to stock buffer: 2 mM dithiothreitol (DTT), 0.0025% Tween-20, 0.1 mg/mL bovine serum albumin (BSA). The 1× Tb-Mcl-1+Cy5 Bim peptide solution was prepared by diluting the protein stock solution using the 1× assay buffer (b) to 25 pM Tb-Mcl-1 and 8 nM Cy5 Bim peptide.
Using the Acoustic ECHO, 100 nL of 100× test compound(s) were dispensed into individual wells of a white 384-well Perkin Elmer Proxiplate, for a final compound concentration of 1× and final DMSO concentration of 1%. Inhibitor control and neutral control (NC, 100 nL of 100% DMSO) were stamped into columns 23 and 24 of assay plate. Into each well of the plate was then dispensed 10 μL of the 1× Tb-Mcl-1+Cy5 Bim peptide solution. The plate was centrifuged with a cover plate at 1000 rpm for 1 minute, then incubated for 60 minutes at room temperature with plates covered.
The TR-FRET signal was read on an BMG PHERAStar FSX MicroPlate Reader at room temperature using the HTRF optic module (HTRF: excitation: 337 nm, light source: laser, emission A: 665 nm, emission B: 620 nm, integration start: 60 μs, integration time: […]).
The BMG PHERAStar FSX MicroPlate Reader was used to measure fluorescence intensity at two emission wavelengths—665 nm and 620 nm—and report relative fluorescence units (RFU) for both emissions, as well as a ratio of the emissions (665 nm/620 nm)*10,000. The RFU values were normalized to percent inhibition as follows:
% inhibition (((NC−IC)−(compound-IC))/(NC−IC))*100
where IC (inhibitor control, low signal)=mean signal of 1× Tb-MCl-1+Cy5 Bim peptide+inhibitor control or 100% inhibition of Mel-1; NC (neutral control, high signal)=mean signal 1× Tb-MCI-1+Cy5 Bim peptide with DMSO only or 0% inhibition
An 11-point dose response curve was generated to determine IC50 values (using GenData) based on the following equation:
Y=Bottom+(Top-Bottom)/(1+10^((log IC50−X)*HillSlope))
where Y=% inhibition in the presence of X inhibitor concentration; Top=100% inhibition derived from the IC (mean signal of Mcl-1+inhibitor control); Bottom=0% inhibition derived from the NC (mean signal of Mcl-1+DMSO); Hillslope=Hill coefficient; and IC50=concentration of compound with 50% inhibition in relation to top/neutral control (NC).
In this assay [L]=8 nM and Kd=10 nM
Representative compounds of the present invention were tested according to the procedure as described above, with results as listed in the Table below (n.d. means not determined).

[2] = test system: MOLP-8 human multiple myeloma cell line; experiment: Caspase-Glo 3/7 apoptosis induction assay in MOLP-8 cells; format: cell-based; details: Homo sapiens, MOLP-8; caspase-3/7 activation, 2 hours incubation at 37° C.; averaged over all runs on all batches; read-out: MOLP8 AC50
Description: MCL-1 is a regulator of apoptosis and is highly over-expressed in tumor cells that escape cell death. The assay evaluates the cellular potency of small-molecule compounds targeting regulators of the apoptosis pathway, primarily MCL-1, Bfl-1, Bcl-2, and other proteins of the Bcl-2 family. Protein-protein inhibitors disrupting the interaction of anti-apoptotic regulators with BH3-domain proteins initiate apoptosis.
The Caspase-Glo® 3/7 Assay is a luminescent assay that measures caspase-3 and -7 activities in purified enzyme preparations or cultures of adherent or suspension cells. The assay provides a proluminescent caspase-3/7 substrate, which contains the tetrapeptide sequence DEVD. This substrate is cleaved to release aminoluciferin, a substrate of luciferase used in the production of light. Addition of the single Caspase-Glo® 3/7 Reagent in an “add-mix-measure” format results in cell lysis, followed by caspase cleavage of the substrate and generation of a “glow-type” luminescent signal.
This assay uses the MOLP-8 human multiple myeloma cell line, which is sensitive to MCL-1 inhibition.
Cell cultures were maintained between 0.2 and 2.0×10^6 cells/mL. The cells were harvested by collection in 50 mL conical tubes. The cells were then pelleted at 500 g for 5 mins before removing supernatant and resuspension in fresh pre-warmed culture medium. The cells were counted and diluted as needed.
The assay reagent was prepared by transferring the buffer solution to the substrate vial and mixing. The solution may be stored for up to 1 week at 4° C. with negligible loss of signal.
Compounds were delivered in assay-ready plates (Proxiplate) and stored at −20° C.
Assays always include 1 reference compound plate containing reference compounds. The plates were spotted with 40 nL of compounds (0.5% DMSO final in cells; serial dilution; 30 μM highest conc. 1/3 dilution, 10 doses, duplicates). The compounds were used at room temperature and 4 μL of pre-warmed media was added to all wells except column 2 and 23. The negative control was prepared by adding 1% DMSO in media. The positive control was prepared by adding the appropriate positive control compound in final concentration of 60 μM in media. The plate was prepared by adding 4 μL negative control to column 23, 4 μL positive control to column 2, and 4 μL cell suspension to all wells in the plate. The plate with cells was then incubated at 37° C. for 2 hours. The assay signal reagent is the Caspase-Glo solution described above, and 8 μL was added to all wells. The plates were then sealed and measured after 30 minutes.
The activity of a test compound was calculated as percent change in apoptosis induction as follows: • LC=median of the Low Control values • =Central Reference in Screener • =DMSO • =0% • HC=Median of the High Control values • =Scale Reference in Screener • =30 μM of positive control • =100% apoptosis induction
% Effect (AC50)=100−((sample-LC)/(HC-LC))*100
% Control=(sample/HC)*100
% Control min=((sample-LC)/(HC-LC))*100
Table: Measured AC50 for Representative Compounds of Formula (I). Averaged values are reported over all runs on all batches of a particular compound.

Mcl-1, sequence (Q07820 whole entry): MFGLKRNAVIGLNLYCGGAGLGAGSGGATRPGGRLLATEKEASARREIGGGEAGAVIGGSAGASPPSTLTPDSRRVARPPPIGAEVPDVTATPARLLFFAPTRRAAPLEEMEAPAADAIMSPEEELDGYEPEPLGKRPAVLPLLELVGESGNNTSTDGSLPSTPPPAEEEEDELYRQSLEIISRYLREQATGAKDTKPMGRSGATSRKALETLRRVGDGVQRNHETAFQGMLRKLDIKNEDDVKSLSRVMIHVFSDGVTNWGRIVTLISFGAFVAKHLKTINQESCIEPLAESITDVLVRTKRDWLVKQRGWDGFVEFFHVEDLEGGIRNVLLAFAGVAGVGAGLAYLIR

SMILES	Ki [1]	AC50 [2]
C[C@@H]1[C@@H](C)C/C=C(\F)C(C(O)COCC2CCOCC2)N2CC[C@H]2CN2C[C@@]3(CCCc4cc(Cl)ccc43)COc3ccc(cc32)C(=O)NS1(=O)=O (single isomer, unassigned) [Compound 5]	0.23 nM	238 nM
C[C@@H]1[C@@H](C)C/C=C(\F)[C@H]([C@@H](C)O)N2CC[C@H]2CN2C[C@@]3(CCCc4cc(Cl)ccc43)COc3ccc(cc32)C(=O)NS1(=O)=O [Compound 1]	0.326 nM	116 nM
C[C@H](O)[C@H]1/C(F)=C/C[C@H](C)[C@@H](C)S(=O)(=O)NC(=O)c2ccc3c(c2)N(C[C@@H]2CCN21)C[C@@]1(CCCc2cc(Cl)ccc21)CO3 [Compound 2]	0.106 nM	122 nM
C[C@@H]1[C@@H](C)C/C=C(\F)[C@H]([C@@H](C)O)N2CCC[C@H]2CN2C[C@@]3(CCCc4cc(Cl)ccc43)COc3ccc(cc32)C(=O)NS1(=O)=O [Compound 3]	1.56 nM	217 nM
C[C@H](O)[C@H]1/C(F)=C/C[C@H](C)[C@@H](C)S(=O)(=O)NC(=O)c2ccc3c(c2)N(C[C@@H]2CCCN21)C[C@@]1(CCCc2cc(Cl)ccc21)CO3 [Compound 4]	0.236 nM	238 nM
C[C@@H]1[C@@H](C)C/C=C(\F)[C@H]([C@@H](O)COCC2CCOCC2)N2CC[C@H]2CN2C[C@@]3(CCCc4cc(Cl)ccc43)COc3ccc(cc32)C(=O)NS1(=O)=O [Compound 6]	0.053 nM	68.5 nM
COC[C@]1([C@@H]2COC(C)(C)O2)/C(F)=C/C[C@H](C)[C@@H](C)S(=O)(=O)NC(=O)c2ccc3c(c2)N(C[C@@H]2CCN21)C[C@@]1(CCCc2cc(Cl)ccc21)CO3 [Compound 7]	0.221 nM	134 nM
CO[C@@H](CO)[C@@]1(CO)/C(F)=C/C[C@H](C)[C@@H](C)S(=O)(=O)NC(=O)c2ccc3c(c2)N(C[C@@H]2CCN21)C[C@@]1(CCCc2cc(Cl)ccc21)CO3 [Compound 8]	0.357 nM	3960 nM
C[C@@H]1[C@@H](C)C/C=C(\F)[C@@]2(COC(C)(C)OC[C@@H]2O)N2CC[C@H]2CN2C[C@@]3(CCCc4cc(Cl)ccc43)COc3ccc(cc32)C(=O)NS1(=O)=O [Compound 9]	0.04 nM	64.8 nM
C[C@@H]1[C@@H](C)C/C=C(\F)[C@](CO)([C@@H]2COC(C)(C)O2)N2CC[C@H]2CN2C[C@@]3(CCCc4cc(Cl)ccc43)COc3ccc(cc32)C(=O)NS1(=O)=O [Compound 10]	–	553 nM
C[C@@H]1[C@@H](C)C/C=C(\F)[C@@]2(COC(C)(C)OC[C@@H]2O)N2CCC[C@H]2CN2C[C@@]3(CCCc4cc(Cl)ccc43)COc3ccc(cc32)C(=O)NS1(=O)=O [Compound 11]	0.172 nM	96.5 nM
CO[C@H]1COC(C)(C)OC[C@@]12/C(F)=C/C[C@H](C)[C@@H](C)S(=O)(=O)NC(=O)c1ccc3c(c1)N(C[C@@H]1CCCN12)C[C@@]1(CCCc2cc(Cl)ccc21)CO3 [Compound 12]	0.359 nM	885 nM
C[C@@H]1[C@@H](C)C/C=C(\F)C2(COC(C)(C)OC2)N2CC[C@H]2CN2C[C@@]3(CCCc4cc(Cl)ccc43)COc3ccc(cc32)C(=O)NS1(=O)=O [Compound 13]	1.77 nM	1110 nM
C[C@@H]1[C@@H](C)C/C=C(\F)C2(COC(C)(C)OC2)N2CCC[C@H]2CN2C[C@@]3(CCCc4cc(Cl)ccc43)COc3ccc(cc32)C(=O)NS1(=O)=O [Compound 14]	0.241 nM	759 nM
COC[C@H](OC)[C@@]1(COC)/C(F)=C/C[C@H](C)[C@@H](C)S(=O)(=O)NC(=O)c2ccc3c(c2)N(C[C@@H]2CCN21)C[C@@]1(CCCc2cc(Cl)ccc21)CO3 [Compound 15]	–	503 nM
COC[C@H](O)[C@@]1(COC)/C(F)=C/C[C@H](C)[C@@H](C)S(=O)(=O)NC(=O)c2ccc3c(c2)N(C[C@@H]2CCN21)C[C@@]1(CCCc2cc(Cl)ccc21)CO3 [Compound 16]	0.072 nM	222 nM
C[C@@H]1[C@@H](C)C/C=C(\F)[C@H]([C@@H](C)O)N2CCC[C@H]2CN2C[C@@]3(CCOc4cc(Cl)ccc43)COc3ccc(cc32)C(=O)NS1(=O)=O [Compound 17]	2.41 nM	3350 nM

Reference: US20240083890A1, “MACROCYCLIC BRANCHED 3-FLUORO-BUT-3-ENAMIDES AS INHIBITORS OF MCL-1” (JANSSEN PHARMACEUTICA NV, priority 2020, published 2024)
